# Target: Polymerase acidic protein (Influenza A virus (strain A/Puerto Rico/8/1934 H1N1), UniProt P03433)
# Experiment: Inhibition of Influenza replication
row,Structure (SMILES),IC50 [µM]
1,O=C(O)C(=O)CC(=O)C1(Cc2ccc(Cl)cc2)CCCN(Cc2ccccc2)C1 (configuration not stated),1.6
2,O=C(O)C(=O)CC(=O)C1(Cc2ccc(Cl)cc2)CCN(Cc2ccc(Cl)cc2)CC1,0.18
